Assay results as given in patent publication US7446199B2, “Compositions useful as inhibitors of protein kinases” (Vertex Pharmaceuticals Incorporated, priority 2003, dated 2008).
pKi: −log10 of the molar value.

Key:
KDR = KDR (Homo sapiens, UniProt P35968); assay: KDR enzyme assay, coupled enzyme assay; assay type: biochemical; conditions: 300 μM ATP, 10 μM poly E4Y, 30 nM KDR, 37° C.
How it was run: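 Coupled enzyme (PK/LDH, NADH) assay with 30 nM KDR in 200 mM HEPES 7.5, 10 mM MgCl2, 25 mM NaCl, 1 mM DTT, 1.5% DMSO; 300 μM ATP, 10 μM poly E4Y. Compound at 30 μM final, preincubated ~10 min at 37 °C before ATP start; rates read over 5 min at 37 °C.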

FLT-3 = target: T1, FLT-3 (Homo sapiens, UniProt P36888); assay: Inhibition of FLT-3, radiometric filter-binding assay; assay type: biochemical; conditions: 90 μM ATP, 0.5 mg/mL pE4Y, room temperature
T1 construct: 0.02% BSA and 3 nM FLT-3
T1 sequence (P36888 27-993): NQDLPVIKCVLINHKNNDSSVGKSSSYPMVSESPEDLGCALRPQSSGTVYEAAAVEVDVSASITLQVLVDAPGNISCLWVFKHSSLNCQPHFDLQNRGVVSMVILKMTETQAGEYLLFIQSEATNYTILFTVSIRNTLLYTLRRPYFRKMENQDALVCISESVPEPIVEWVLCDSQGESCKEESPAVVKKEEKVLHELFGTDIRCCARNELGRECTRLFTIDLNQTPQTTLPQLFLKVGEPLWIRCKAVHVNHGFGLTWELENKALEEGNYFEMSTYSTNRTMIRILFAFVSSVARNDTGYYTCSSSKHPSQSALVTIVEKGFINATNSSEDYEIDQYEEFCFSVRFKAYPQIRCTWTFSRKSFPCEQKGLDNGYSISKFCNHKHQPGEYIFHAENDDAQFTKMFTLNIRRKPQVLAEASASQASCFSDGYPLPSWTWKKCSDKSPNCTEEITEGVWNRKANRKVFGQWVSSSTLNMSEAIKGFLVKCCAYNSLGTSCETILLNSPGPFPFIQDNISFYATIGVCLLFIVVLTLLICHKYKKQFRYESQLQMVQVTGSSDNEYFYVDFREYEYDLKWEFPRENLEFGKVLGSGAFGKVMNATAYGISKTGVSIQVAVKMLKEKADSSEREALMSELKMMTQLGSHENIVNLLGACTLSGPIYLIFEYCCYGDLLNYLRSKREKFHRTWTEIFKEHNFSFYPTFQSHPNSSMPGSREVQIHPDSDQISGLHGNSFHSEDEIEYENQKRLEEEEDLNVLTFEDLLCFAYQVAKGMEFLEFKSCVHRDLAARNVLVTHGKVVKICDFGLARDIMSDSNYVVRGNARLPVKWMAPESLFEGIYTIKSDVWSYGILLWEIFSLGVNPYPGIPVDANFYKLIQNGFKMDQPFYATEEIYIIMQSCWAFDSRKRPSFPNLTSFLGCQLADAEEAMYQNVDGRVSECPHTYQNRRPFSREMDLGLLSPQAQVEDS
How it was run: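 Radiometric filter-binding assay of FLT-3 (3 nM in Solution 2; final conc not stated) phosphorylating poly(Glu,Tyr) 4:1 (0.5 mg/mL) with 90 μM ATP plus [γ-33P]ATP, in HEPES pH 7.5, MgCl2, NaCl, DTT, BSA, 2.5% DMSO. 12-point titration, typically 0.01–5 μM, 20 min at room temperature; TCA-stopped, filtered, scintillation-counted; IC50 or Ki fitted.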

Sequence of KDR (P35968 20-1356): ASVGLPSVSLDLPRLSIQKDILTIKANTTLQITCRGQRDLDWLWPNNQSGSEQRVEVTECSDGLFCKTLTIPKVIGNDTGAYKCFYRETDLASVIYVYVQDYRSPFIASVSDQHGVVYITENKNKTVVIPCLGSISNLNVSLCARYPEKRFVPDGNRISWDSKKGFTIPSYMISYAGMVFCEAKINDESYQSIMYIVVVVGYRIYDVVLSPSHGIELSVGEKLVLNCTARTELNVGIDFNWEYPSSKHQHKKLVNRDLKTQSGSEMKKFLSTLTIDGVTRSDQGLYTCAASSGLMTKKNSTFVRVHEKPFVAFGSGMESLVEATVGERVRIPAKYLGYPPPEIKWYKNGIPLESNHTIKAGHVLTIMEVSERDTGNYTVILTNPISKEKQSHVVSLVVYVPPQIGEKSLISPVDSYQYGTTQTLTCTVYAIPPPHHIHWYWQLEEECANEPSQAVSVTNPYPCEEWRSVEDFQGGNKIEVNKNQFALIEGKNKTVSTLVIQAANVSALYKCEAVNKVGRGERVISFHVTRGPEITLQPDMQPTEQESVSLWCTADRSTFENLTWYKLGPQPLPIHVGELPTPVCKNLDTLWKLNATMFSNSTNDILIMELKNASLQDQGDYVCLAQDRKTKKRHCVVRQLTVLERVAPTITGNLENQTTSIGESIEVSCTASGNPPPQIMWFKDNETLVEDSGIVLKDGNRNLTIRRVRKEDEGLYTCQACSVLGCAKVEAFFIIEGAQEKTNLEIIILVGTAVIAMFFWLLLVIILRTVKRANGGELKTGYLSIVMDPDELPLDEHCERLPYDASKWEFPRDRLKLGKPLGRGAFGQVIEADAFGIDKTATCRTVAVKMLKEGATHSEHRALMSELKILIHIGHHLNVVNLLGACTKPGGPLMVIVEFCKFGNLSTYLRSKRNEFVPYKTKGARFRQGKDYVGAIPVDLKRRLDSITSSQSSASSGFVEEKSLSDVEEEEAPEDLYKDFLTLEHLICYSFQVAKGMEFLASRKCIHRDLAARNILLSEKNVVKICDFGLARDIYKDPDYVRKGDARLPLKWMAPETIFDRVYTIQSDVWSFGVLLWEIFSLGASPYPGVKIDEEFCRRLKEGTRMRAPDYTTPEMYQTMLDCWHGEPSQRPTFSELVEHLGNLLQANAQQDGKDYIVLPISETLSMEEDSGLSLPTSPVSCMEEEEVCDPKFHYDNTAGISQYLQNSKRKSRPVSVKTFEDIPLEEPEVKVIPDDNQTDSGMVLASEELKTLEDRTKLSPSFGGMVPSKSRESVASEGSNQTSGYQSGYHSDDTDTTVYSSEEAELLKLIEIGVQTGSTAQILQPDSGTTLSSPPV

Row | Structure (SMILES) | pKi (KDR) | pKi (FLT-3)
1 | CN(C)c1ccc(-c2cnc3[nH]cc(-c4nncn4-c4cccc(F)c4F)c3c2)cc1 [Compound 106, (4-{3-[4-(2,3-Difluoro-phenyl)-4H-[1,2,4]triazol-3-yl]-1H-pyrrolo[2,3-b]pyridin-5-yl}-phenyl)-dimethyl-amine] | 6.00 to 6.70 | 6.00 to 6.70
2 | Fc1cccc(-n2cnnc2-c2c[nH]c3ncc(-c4ccc(CN5CCOCC5)cc4)cc23)c1F [Compound 109, 3-[4-(2,3-Difluoro-phenyl)-4H-[1,2,4]triazol-3-yl]-5-(4-morpholin-4-ylmethyl-phenyl)-1H-pyrrolo[2,3-b]pyridine] | 6.00 to 6.70 | 6.00 to 6.70
3 | CN1CCN(c2ccc(-c3cnc4[nH]cc(-c5nncn5-c5cccc(F)c5F)c4c3)cc2)CC1 [Compound 110, 3-[4-(2,3-Difluoro-phenyl)-4H-[1,2,4]triazol-3-yl]-5-[4-(4-methyl-piperazin-1-yl)-phenyl]-1H-pyrrolo[2,3-b]pyridine] | 6.00 to 6.70 | 6.00 to 6.70
4 | CN1CCN(c2ccc(-c3cnc4[nH]cc(-c5nncn5-c5cccc(F)c5F)c4c3)cn2)CC1 [Compound 112] | 6.00 to 6.70 | 6.00 to 6.70
5 | Fc1cccc(-n2cnnc2-c2c[nH]c3ncc(-c4ccc(N5CCC[C@H]5CN5CCCC5)nc4)cc23)c1F [Compound 115, 3-[4-(2,3-Difluoro-phenyl)-4H-[1,2,4]triazol-3-yl]-5-[6-(2-pyrrolidin-1-ylmethyl-pyrrolidin-1-yl)-pyridin-3-yl]-1H-pyrrolo[2,3-b]pyridine] | 4.90 to 6.00 | 6.00 to 6.70
6 | OC1CCN(c2ccc(-c3cnc4[nH]cc(-c5nncn5-c5cccc(F)c5F)c4c3)cn2)CC1 [Compound 116, 5′-{3-[4-(2,3-Difluoro-phenyl)-4H-[1,2,4]triazol-3-yl]-1H-pyrrolo[2,3-b]pyridin-5-yl}-3,4,5,6-tetrahydro-2H-[1,2′]bi-pyridinyl-4-ol] | 6.00 to 6.70 | 6.00 to 6.70
7 | CN1CCCN(c2ccc(-c3cnc4[nH]cc(-c5nncn5-c5cccc(F)c5F)c4c3)cn2)CC1 [Compound 117, 3-[4-(2,3-Difluoro-phenyl)-4H-[1,2,4]triazol-3-yl]-5-[6-(4-methyl-[1,4]diazepan-1-yl)-pyridin-3-yl]-1H-pyrrolo [2,3-b]-pyridine] | 6.00 to 6.70 | 6.00 to 6.70
8 | Fc1cccc(-n2cnnc2-c2c[nH]c3ncc(-c4ccc(N5CCCC5)nc4)cc23)c1F [Compound 118, 3-[4-(2,3-Difluoro-phenyl)-4H-[1,2,4]triazol-3-yl]-5-(6-pyrrolidin-1-yl-pyridin-3-yl)-1H-pyrrolo[2,3-b]pyridine] | 6.00 to 6.70 | 6.00 to 6.70
9 | CN(C)CCNc1ccc(-c2cnc3[nH]cc(-c4nncn4-c4cccc(F)c4F)c3c2)cn1 [Compound 119, N′-(5-{3-[4-(2,3-Difluoro-phenyl)-4H-[1,2,4]triazol-3-yl]-1H-pyrrolo[2,3-b]pyridin-5-yl}-pyridin-2-yl)-N,N-dimethyl-ethane-1,2-diamine] | 6.00 to 6.70 | 6.00 to 6.70
10 | Cc1noc(-c2c[nH]c3ncccc23)c1-c1cccc(F)c1F [Compound 134, 3-[4-(2,3-Difluoro-phenyl)-3-methyl-isoxazol-5-yl]-1H-pyrrolo[2,3-b]pyridine] | 4.90 to 6.00 | > 6.70
11 | Fc1cccc(-c2cnoc2-c2c[nH]c3ncc(C4=CCC(NCc5ccccc5)CC4)cc23)c1F (stereo not shown) [Compound 136, Benzyl-(4-{3-[4-(2,3-difluoro-phenyl)-isoxazol-5-yl]-1H-pyrrolo[2,3-b]pyridin-5-yl}-cyclohex-3-enyl)-amine] | 6.00 to 6.70 | 6.00 to 6.70
12 | Fc1cccc(-c2cnoc2-c2c[nH]c3ncc(C4=CCC(N5CCOCC5)CC4)cc23)c1F (stereo not shown) [Compound 139, 3-[4-(2,3-Difluoro-phenyl)-isoxazol-5-yl]-5-(4-morpholin-4-yl-cyclohex-1-enyl)-1H-pyrrolo[2,3-b]pyridine] | 6.00 to 6.70 | > 6.70

Next, values leading:

Row | pKi (KDR) | pKi (FLT-3) | Structure (SMILES)
13 | > 6.70 | > 6.70 | CN1CCN(Cc2ccc(-c3cnc4[nH]cc(-c5oncc5-c5cccc(F)c5F)c4c3)cc2)CC1 [Compound 94, 3-[4-(2,3-Difluoro-phenyl)-isoxazol-5-yl]-5-[4-(4-methyl-piperazin-1-ylmethyl)-phenyl]-1H-pyrrolo[2,3-b]pyridine]
14 | 6.00 to 6.70 | > 6.70 | CC(=O)Nc1ccc(-c2cnc3[nH]cc(-c4oncc4-c4cccc(F)c4F)c3c2)cc1 [Compound 95, N-(4-{3-[4-(2,3-Difluoro-phenyl)-isoxazol-5-yl]-1H-pyrrolo[2,3-b]pyridin-5-yl}-phenyl)-acetamide]
15 | > 6.70 | 6.00 to 6.70 | COc1cncc(-c2cnc3[nH]cc(-c4oncc4-c4cccc(F)c4F)c3c2)c1 [Compound 96, 3-[4-(2,3-Difluoro-phenyl)-isoxazol-5-yl]-5-(5-methoxy-pyridin-3-yl)-1H-pyrrolo[2,3-b]pyridine]
16 | > 6.70 | > 6.70 | CS(=O)(=O)Nc1ccc(-c2cnc3[nH]cc(-c4oncc4-c4cccc(F)c4F)c3c2)cc1 [Compound 98, N-(4-{3-[4-(2,3-Difluoro-phenyl)-isoxazol-5-yl]-1H-pyrrolo[2,3-b]pyridin-5-yl}-phenyl)-methane sulfonamide]
17 | > 6.70 | > 6.70 | Clc1cccc(-c2cnoc2-c2c[nH]c3ncc(-c4cccnc4)cc23)c1Cl [Compound 99, 3-[4-(2,3-Dichloro-phenyl)-isoxazol-5-yl]-5-pyridin-3-yl-1H-pyrrolo[2,3-b]pyridine]
18 | 4.90 to 6.00 | 4.90 to 6.00 | CNc1ccc2c(-c3oncc3-c3cccc(F)c3F)c[nH]c2n1 [Compound 102, {3-[4-(2,3-Difluoro-phenyl)-isoxazol-5-yl]-1H-pyrrolo[2,3-b]pyridin-6-yl}-methyl-amine]
19 | 6.00 to 6.70 | > 6.70 | COC(=O)c1cnc2[nH]cc(-c3oncc3-c3cccc(F)c3F)c2c1 [Compound 105, 3-[4-(2,3-Difluoro-phenyl)-isoxazol-5-yl]-1H-pyrrolo[2,3-b]pyridine-5-carboxylic acid methyl ester]
20 | > 6.70 | > 6.70 | Fc1cccc(-c2cnoc2-c2c[nH]c3ncc(/C=C/n4cncn4)cc23)c1F [Compound 133, 3-[4-(2,3-Difluoro-phenyl)-isoxazol-5-yl]-5-(2-[1,2,4]triazol-1-yl-vinyl)-1H-pyrrolo[2,3-b]pyridine]
21 | > 6.70 | > 6.70 | NC1CC=C(c2cnc3[nH]cc(-c4oncc4-c4cccc(F)c4F)c3c2)CC1 (stereo not shown) [Compound 137, 4-{3-[4-(2,3-Difluoro-phenyl)-isoxazol-5-yl]-1H-pyrrolo [2,3-b]pyridin-5-yl}-cyclohex-3-enylamine]
22 | > 6.70 | > 6.70 | CN(C)C1CC=C(c2cnc3[nH]cc(-c4oncc4-c4cccc(F)c4F)c3c2)CC1 (stereo not shown) [Compound 138, (4-{3-[4-(2,3-Difluoro-phenyl)-isoxazol-5-yl]-1H-pyrrolo[2,3-b]pyridin-5-yl}-cyclohex-3-enyl)-dimethyl-amine]
23 | > 6.70 | > 6.70 | CS(=O)(=O)NC1CC=C(c2cnc3[nH]cc(-c4oncc4-c4cccc(F)c4F)c3c2)CC1 (stereo not shown) [Compound 140, N-(4-{3-[4-(2,3-Difluoro-phenyl)-isoxazol-5-yl]-1H-pyrrolo[2,3-b]pyridin-5-yl}-cyclohex-3-enyl)-methanesulfonamide]
